{"source": "paper PMC8574157", "about": "(Journal of chemical information and modeling, 2021)", "key": {"[1]": {"system": "YFV 17D strain", "assay": "microbe, parasite or virus in culture", "type": "cell-based, yellow fever virus"}, "[2]": {"assay": "in vitro", "conditions": "human"}, "[3]": {"biological_target": "protease for YFV (Yellow fever virus, UniProt P03314)", "sequence (P03314 1485-2107 limits assumed)": "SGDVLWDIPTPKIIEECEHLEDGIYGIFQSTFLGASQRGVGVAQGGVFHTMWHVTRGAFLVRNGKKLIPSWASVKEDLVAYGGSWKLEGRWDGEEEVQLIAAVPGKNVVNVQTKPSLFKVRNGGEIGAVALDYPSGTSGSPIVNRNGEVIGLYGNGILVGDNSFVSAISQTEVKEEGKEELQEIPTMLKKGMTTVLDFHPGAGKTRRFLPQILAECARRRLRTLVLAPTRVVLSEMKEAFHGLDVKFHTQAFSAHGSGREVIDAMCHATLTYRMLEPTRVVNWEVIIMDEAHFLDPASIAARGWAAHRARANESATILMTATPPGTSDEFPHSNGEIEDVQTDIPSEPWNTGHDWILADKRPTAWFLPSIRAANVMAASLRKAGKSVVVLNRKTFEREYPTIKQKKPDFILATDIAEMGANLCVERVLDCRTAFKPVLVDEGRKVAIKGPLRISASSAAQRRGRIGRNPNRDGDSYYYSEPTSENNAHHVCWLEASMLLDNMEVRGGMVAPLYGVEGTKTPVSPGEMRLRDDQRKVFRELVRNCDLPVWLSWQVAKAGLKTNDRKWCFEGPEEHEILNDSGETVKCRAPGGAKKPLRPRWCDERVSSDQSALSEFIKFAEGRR", "sequence (P03314 1355-1484 partner limits assumed)": "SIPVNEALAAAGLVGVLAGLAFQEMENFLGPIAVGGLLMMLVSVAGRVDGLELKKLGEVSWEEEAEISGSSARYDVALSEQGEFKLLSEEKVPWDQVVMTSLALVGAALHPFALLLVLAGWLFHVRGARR", "type": "biochemical"}, "[4]": {"biological_target": "polymerase for YFV (Yellow fever virus, UniProt P03314)", "sequence (P03314 2507-3411 limits assumed)": "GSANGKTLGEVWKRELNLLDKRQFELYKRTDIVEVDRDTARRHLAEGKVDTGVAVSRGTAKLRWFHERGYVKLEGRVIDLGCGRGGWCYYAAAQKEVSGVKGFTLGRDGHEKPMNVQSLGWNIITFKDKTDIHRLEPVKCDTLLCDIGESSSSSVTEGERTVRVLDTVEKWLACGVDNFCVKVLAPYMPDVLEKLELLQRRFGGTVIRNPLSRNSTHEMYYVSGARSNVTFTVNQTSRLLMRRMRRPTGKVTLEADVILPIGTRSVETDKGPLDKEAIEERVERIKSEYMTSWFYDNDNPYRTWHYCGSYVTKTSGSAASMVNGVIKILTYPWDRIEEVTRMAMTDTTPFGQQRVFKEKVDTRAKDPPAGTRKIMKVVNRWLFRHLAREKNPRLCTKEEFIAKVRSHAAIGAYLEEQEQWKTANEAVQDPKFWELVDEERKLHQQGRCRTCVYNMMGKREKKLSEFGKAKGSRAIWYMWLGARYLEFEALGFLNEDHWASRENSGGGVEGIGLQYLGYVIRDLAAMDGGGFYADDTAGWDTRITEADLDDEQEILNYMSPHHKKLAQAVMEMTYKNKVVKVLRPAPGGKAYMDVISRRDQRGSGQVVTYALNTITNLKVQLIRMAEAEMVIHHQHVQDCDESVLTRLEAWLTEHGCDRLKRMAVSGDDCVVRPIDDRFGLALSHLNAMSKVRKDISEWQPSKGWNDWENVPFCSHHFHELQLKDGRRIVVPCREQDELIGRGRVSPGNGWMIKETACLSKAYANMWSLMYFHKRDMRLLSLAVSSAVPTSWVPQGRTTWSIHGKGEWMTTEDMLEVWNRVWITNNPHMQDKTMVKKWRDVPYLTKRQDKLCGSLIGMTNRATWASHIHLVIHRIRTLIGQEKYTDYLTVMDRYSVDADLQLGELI", "type": "biochemical"}, "[5]": {"conditions": "Yellow fever virus, Huh-7, read-out: EC50 (Neutral Red)"}, "[6]": {"conditions": "Yellow fever virus, Huh-7, read-out: EC50 (Visual)"}}, "note": "Read-outs that look alike come from different tables or passages of the source."}
{"molecule": "O=C1[C@H](CC[C@H](O)c2ccc(F)cc2)[C@@H](c2ccc(O)cc2)N1c1ccc(F)cc1", "note": "[Ezetimibe]", "values": [{"measurement": "EC50", "setting": "[1]; [5]", "result": "> 29", "unit": "µM"}, {"measurement": "EC50", "setting": "[1]; [6]", "result": "> 32", "unit": "µM"}, {"measurement": "CC50", "setting": "[2]; CC50 (Neutral Red)", "result": 29, "unit": "µM"}, {"measurement": "CC50", "setting": "[2]; CC50 (Visual)", "result": 32, "unit": "µM"}]}
{"molecule": "N-{4-cyano-5-[(4-fluorophenyl)amino]-1H-pyrazol-3-yl}naphthalene-2-sulfonamide [Compound 11626003]", "values": [{"measurement": "EC50", "setting": "[1]; read-out: EC50 (Neutral Red)", "result": 3.3, "unit": "µM"}, {"measurement": "EC50", "setting": "[1]; read-out: EC50 (Visual)", "result": 3.2, "unit": "µM"}, {"measurement": "activity against the protease for YFV", "setting": "[3]", "result": "not active"}, {"measurement": "activity against the polymerase for YFV", "setting": "[4]", "result": "not active"}]}
{"molecule": "Fc1ccc([C@@H]2CCNC[C@H]2COc2ccc3c(c2)OCO3)cc1", "note": "[Paroxetine]", "values": [{"measurement": "EC50", "setting": "[1]; [5]", "result": "> 3.1", "unit": "µM"}, {"measurement": "EC50", "setting": "[1]; [6]", "result": "> 3.2", "unit": "µM"}, {"measurement": "CC50", "setting": "[2]; CC50 (Neutral Red)", "result": 3.1, "unit": "µM"}, {"measurement": "CC50", "setting": "[2]; CC50 (Visual)", "result": 3.2, "unit": "µM"}]}
{"molecule": "CCn1nc(C(=O)O)c(=O)c2cc3c(cc21)OCO3", "note": "[Cinoxacin]", "values": [{"measurement": "EC50", "setting": "[1]; [5]", "result": "> 100", "unit": "µM"}, {"measurement": "EC50", "setting": "[1]; [6]", "result": "> 100", "unit": "µM"}, {"measurement": "CC50", "setting": "[2]; CC50 (Neutral Red)", "result": "> 100", "unit": "µM"}, {"measurement": "CC50", "setting": "[2]; CC50 (Visual)", "result": "> 100", "unit": "µM"}]}
{"molecule": "Oc1ccc(-c2nc(-c3ccncc3)c(-c3ccc(F)cc3)[nH]2)cc1", "note": "[SB202190]", "values": [{"measurement": "EC50", "setting": "[1]; [5]", "result": "> 100", "unit": "µM"}, {"measurement": "EC50", "setting": "[1]; [6]", "result": "> 100", "unit": "µM"}, {"measurement": "CC50", "setting": "[2]; CC50 (Neutral Red)", "result": "> 100", "unit": "µM"}, {"measurement": "CC50", "setting": "[2]; CC50 (Visual)", "result": "> 100", "unit": "µM"}]}
